# Laboratory results: patent US20250082651A1, “GANAXOLONE FOR USE IN TREATING GENETIC EPILEPTIC DISORDERS” (Marinus Pharmaceuticals, Inc., priority 2017, published 2025)
# Several values for one entry are separate records, joined by “and”; a condition that tells them apart may be missing. Identical values can stand only once.
# What was measured:
# [1] = test system: subjects with focal onset seizure disorder; conditions: post hoc, subjects taking 3 or more concomitant AEDs, p=0.02; cited from earlier work
# rats or mice = assay: Reproductive/developmental toxicity and mutagenicity; type: in vivo
# [2] = test system: children with PCDH19 epilepsy; assay: Phase 2 open-label trial, PCDH19 cohort, seizure efficacy; type: in vivo, human
# Description: Example 3 concerns a Phase 2 Multicenter, Open-Label Proof-of-Concept Trial of ganaxolone (GNX) in cohorts of children having genetic epilepsies (PCDH19, CDKL5 LGS, and CSWS) (ClinicalTrials.gov Identifier: NCT02358538). There were 11 female children with PCDH19 epilepsy between 5-16 years old with a confirmed genetic mutation. There were 6 female and 1 male children with confirmed genetic mutations in the CDKL5 cohort. There were 10 children in the Lennox Gastaut Syndrome cohort. Two children with CSWS were enrolled into the study. The study was conducted with 12 weeks baseline, and up to 26 weeks of treatment followed by a 52 week open label treatment. The primary efficacy was the percentage change in seizure frequency per 28 days relative to baseline calculated using daily seizure diary. [Time Frame: 26 weeks]. Secondary Outcome Measures were: Clinician Global Impression of Change score as assessed by questionnaire. [Time Frame: 26 Weeks]; Patient Global Impression of Change score as assessed by questionnaire. [Time Frame: 26 Weeks]; Evaluation of safety and tolerability of open-label ganaxolone as adjunctive therapy for uncontrolled seizures in children with rare genetic epilepsies, based on adverse event log and other clinical safety assessments. [Time Frame: 26 weeks]; Responder rates [Time Frame: 26 weeks]; and Seizure free days [Time Frame: 26 weeks].
# Following screening and baseline evaluations, consenting patients enrolled into a 26-week study during which investigators were allowed to flexibly dose ganaxolone up to a dose of 1,800 mg/day for patients whose body weight was >30 kg, or up to 63 mg/kg/day for patients whose body-weight was <30 kg. The primary efficacy measure is % change from baseline in the 28-day seizure frequency count. Safety and tolerability were within the secondary objectives of the study.
# In this study, oral ganaxolone suspension or capsules were administered up to a total of 63 mg/kg/day (maximum 1800 mg/day) over 2-4 weeks. About six-eight titration steps are used, depending on the size of the patient. Children larger than 30 kg may take the ganaxolone capsules. The ganaxolone oral suspension was administered through an oral dosing syringe three times daily. The ganaxolone capsules were administered twice daily. The patients experience better absorption of the ganaxolone with meals (milk).
# In total, 11 female subjects between 4 and 15 years of age with a confirmed PCDH19 genetic mutation and uncontrolled seizures despite antiepileptic pharmacotherapy were enrolled. Ganaxolone was studied as an adjunctive treatment, administered as either PO liquid suspension or capsules according to the titration schedule in Tables 7 and 8, for 26 weeks after establishing up to 12 weeks of baseline seizure frequency. Primary and secondary endpoints were the same as for the CDKL5 deficiency disorder cohort.
# After establishing baseline seizure frequency, qualifying subjects entered the study and were treated with open-label ganaxolone oral suspension or ganaxolone capsules at doses up to a maximum of 1800 mg/day for up to 6 months. Maximum study participation was 94 weeks: a screening period up to 12 weeks to establish baseline seizure frequency, up to 26 weeks of treatment, a 52 week extension for subjects who benefited from ganaxolone treatment, and up to 4 weeks of down titration period. […] Refractive cases of LGS or CSWS that had prior response to steroid or ACTH could also have been enrolled.
# Ganaxolone oral suspension was administered through an oral dosing syringe by parent or legal guardian 3 times daily (TID), following the morning, noon, and evening meal or snack. Each dose was separated by a minimum of 4 hours and a maximum of 8 hours. A missed dose of ganaxolone could have been taken up to 4 hours before the next scheduled dose; otherwise, the missed dose was not to be given. […]
# [3] = Mass balance, single PO dose of 300 mg 14C-GNX in healthy male volunteers; type: in vivo; conditions: human, plasma
# Description: The total plasma radioactivity concentrations achieved were much higher than GNX plasma levels in clinical studies with non-labelled GNX. […] Approximately 80% of the total radioactivity was excreted in faeces and urine by Day 14. […] PK parameters (mean±SD) of ^14C-GNX-derived total radioactivity in Healthy Male Volunteers (Study No. CA042 9402.01 [n=5]) are summarized in Table 22.
# [4] = individual PCDH19 subjects 1-11
# [5] = preliminary data, 11 PCDH19 patients
smiles,measurement,setting,value
"CC(=O)[C@H]1CC[C@H]2[C@@H]3CC[C@H]4C[C@](C)(O)CC[C@]4(C)[C@H]3CC[C@]12C [Ganaxolone, 3α-hydroxy-3β-methyl-5α-pregnan-20-one]",Greater reduction in median seizure frequency than placebo,[1],20%
same,Mutagenicity,rats or mice; in vivo,No potential for mutagenicity
same,Effects on fertility and early embryonic development,rats or mice; rats,no effects
same,Teratogenicity,rats or mice; rats or mice,not teratogenic
same,Median change (decrease) in 28-day seizure frequency from baseline,"[2]; PCDH19, ITT / all-comers n=11, 4 patients LOCF",26%
same,Median change (increase) from baseline in seizure-free days,"[2]; PCDH19, ITT n=11",14%
same,"Median % change seizure rates, biomarker-negative subjects","[2]; PCDH19, n=4, Allo-S>2,500 pg mL^−1, retrospective",247%
same,"Seizure frequency at 6 months compared to baseline, biomarker-positive group","[2]; PCDH19, p=0.02, Wilcoxon",significantly improved
same,"Seizure frequency at 6 months compared to baseline, biomarker-negative (high Allo-S) group","[2]; PCDH19, p=0.25, Wilcoxon",did not improve
same,"28-day seizure frequency, sum of individual seizures and clusters, post-baseline 26-week open-label period, Mean (SD)","[2]; PCDH19 N=11, MITT",19.85
same,"28-day seizure frequency, sum of individual seizures and clusters, post-baseline 26-week open-label period, Median","[2]; PCDH19 N=11, MITT",5.42
same,"28-day seizure frequency, sum of individual seizures and clusters, post-baseline through Month 3 (Day 91), Mean (SD)","[2]; PCDH19 N=11, MITT",19.82
same,"28-day seizure frequency, sum of individual seizures and clusters, post-baseline through Month 3 (Day 91), Median","[2]; PCDH19 N=11, MITT",7.78
same,"Percent change from baseline (at Day 91), 28-day seizure frequency, sum of individual seizures and clusters, Mean (SD)","[2]; PCDH19 N=11, MITT",52.83%
same,"Percent change from baseline (at Day 91), 28-day seizure frequency, sum of individual seizures and clusters, Median","[2]; PCDH19 N=11, MITT",25.98% and −25.98%
same,"Percent change from baseline (at Week 26), 28-day seizure frequency, sum of individual seizures and clusters, Mean (SD)","[2]; PCDH19 N=11, MITT",46.36%
same,"Percent change from baseline (at Week 26), 28-day seizure frequency, sum of individual seizures and clusters, Median","[2]; PCDH19 N=11, MITT",24.59% and −24.59%
same,"% change seizure rate-12 month, Mean","[2]; PCDH19 cohort, N=7",51.34%
same,"% change seizure rate-12 month, Median","[2]; PCDH19 cohort, N=7",−8.57%
same,"Post-baseline 28-day seizure rate-12 month, Mean","[2]; PCDH19 cohort, N=7",24.25
same,"Post-baseline 28-day seizure rate-12 month, Median","[2]; PCDH19 cohort, N=7",19.44
same,"% change seizure rate-3 month, Mean","[2]; PCDH19 cohort, N=11",105.59%
same,"% change seizure rate-3 month, Median","[2]; PCDH19 cohort, N=11",−7.37%
same,"% change seizure rate-6 month, Mean","[2]; PCDH19 cohort, N=11",103.72%
same,"% change seizure rate-6 month, Median","[2]; PCDH19 cohort, N=11",−25.68%
same,"Post-baseline 28-day seizure rate-3-month, Mean","[2]; PCDH19 cohort, N=11",84.51
same,"Post-baseline 28-day seizure rate-3-month, Median","[2]; PCDH19 cohort, N=11",15.81
same,"Post-baseline 28-day seizure rate-6 month, Mean","[2]; PCDH19 cohort, N=11",84.41
same,"Post-baseline 28-day seizure rate-6 month, Median","[2]; PCDH19 cohort, N=11",15.81
same,Mean percent change in 28-day total seizure frequency from baseline to Week 26,"[2]; PCDH19 cohort, PP Population",60.99%
same,Median percent change in 28-day total seizure frequency from baseline to Week 26,"[2]; PCDH19 cohort, PP Population",22.11%
same,Clinical global impression of improvement: much improved,"[2]; PCDH19 cohort, end of Week 26",2 subjects
same,Clinical global impression of improvement: very much improved,"[2]; PCDH19 cohort, end of Week 26",2 subjects
same,"28-day individual seizure frequency, post-baseline 26-Week open-label period, Mean (SD)","[2]; PCDH19 n=11, MITT",7.28
same,"28-day individual seizure frequency, post-baseline 26-Week open-label period, Median","[2]; PCDH19 n=11, MITT",2.26
same,"28-day individual seizure frequency, post-baseline through Month 3 (Day 91), Mean (SD)","[2]; PCDH19 n=11, MITT",7.29
same,"28-day individual seizure frequency, post-baseline through Month 3 (Day 91), Median","[2]; PCDH19 n=11, MITT",2.49
same,"Percent change from baseline (at Day 91), 28-day individual seizure frequency, Mean (SD)","[2]; PCDH19 n=11, MITT",−16.92%
same,"Percent change from baseline (at Day 91), 28-day individual seizure frequency, Median","[2]; PCDH19 n=11, MITT",−38.48%
same,"Percent change from baseline (at Week 26), 28-day individual seizure frequency, Mean (SD)","[2]; PCDH19 n=11, MITT",−23.95%
same,"Percent change from baseline (at Week 26), 28-day individual seizure frequency, Median","[2]; PCDH19 n=11, MITT",−34.48%
same,Median percent reduction in seizures,[2]; children with PCDH19 disorder,34%
same,28-day seizure free days % change at 3 months,[2]; [4],8% and 18% (2×) and 49% and −7% and −19% and −89% and 23% and 39% and 880% and 4%
same,28-day seizure free days % change at 6 months,[2]; [4],7% and 27% and 14% and 32% and −3% and 890% and 5%
same,28-day seizure rate % change at 3 months,[2]; [4],−33.29% and 31.36% and −7.37% and −4.38% and 106.67% and 353.25% and 1020.50% and −100.00% and −78.83% and −74.17% and −52.30%
same,28-day seizure rate % change at 6 months,[2]; [4],−33.22% and −25.68% and −5.26% and −2.56% and 140.00% and early term (2×) and rash and sz returned and −73.47% and −53.85%
same,Patients achieving greater than 50% seizure reduction that persisted for greater than 6 months,[2]; [5],4 patients
same,Patients with some degree of seizure reduction,[2]; [5],9 of 11
same,Half-life,[3],~25 h
